Laboratory results reported in patent US20050159599A1, “Cyclic compound, process for producing the same, and pest control agent” (priority 2002, published 2005).

The compounds below were run on Spodoptera litura (assay: Insecticidal effect for Spodoptera litura by spraying treatment to host crop (Test Example 2)). Conditions: 100 ppm; sprayed on soybean; third-instar larvae of Spodoptera litura; fifth day after.
Assay type: in vivo
Experimental: Insecticidal Effect for Spodoptera litura by Spraying Treatment to Host Crop
A pesticidal solution, which was prepared by dissolving 5 mg of test compound (represented by the compound Nos. in the above Examples) in 0.5-ml of acetone containing Tween 20 (trade name) and then diluting it to the prescribed concentration (100 ppm) with Dain (trade name, sticker) water diluted 5000-fold, was sprayed on a soybean whose primary leaves had developed completely with spray gun in the amounts wherein the pesticidal solution dripped. After drying the pesticidal solution, two primary leaves were cut off. The leaves were put into an ice cream cup (180 ml), and ten third-instar larvae of Spodoptera litura were set free therein. The cup was left in a temperature-controlled breeding room (25° C.). On the fifth day after, the number of surviving Spodoptera litura was examined. The rate of dead pests was calculated by the following formula. rate of dead pests (%)=(number of dead pests/number of test pests)×100

Compound	rate of dead pests (%)
O=C(c1c(F)cccc1Cl)N1COCN(c2ccc(SC(F)(F)F)c(F)c2F)C1=O [I-284]	100
O=C(c1c(F)cccc1Cl)N1COCN(c2c(F)cc(SC(F)(F)F)c(F)c2F)C1=O [I-293]	100
O=C(c1c(F)cccc1F)N1CN(C2CC2)CN(c2cc(Cl)c(F)c(Cl)c2F)C1=O [III-53]	100
CN1CN(C(=O)c2c(F)cccc2F)C(=O)N(c2cc(Cl)c(F)c(Cl)c2F)C1 [III-51]	100
O=C(c1c(F)cccc1F)N1COCN(c2cc(Cl)c([S+]([O-])C(F)(F)F)cc2F)C1=O (stereo not drawn) [I-99]	100
O=C(c1c(F)cccc1Cl)N1COCN(c2c(F)cc([S+]([O-])C(F)(F)F)c(F)c2F)C1=O (stereo not drawn) [I-294]	100
Cc1c(N2COCN(C(=O)c3c(F)cccc3Cl)C2=O)ccc(SC(F)(F)F)c1Cl [I-299]	100
O=C(c1c(F)cccc1Cl)N1COCN(c2ccc([S+]([O-])C(F)(F)C(F)(F)C(F)(F)F)cc2Cl)C1=O (stereo not drawn) [I-324]	100
O=C(c1c(F)cccc1F)N1COCN(c2ccc(SC(F)(F)F)c(Cl)c2F)C1=O [I-95]	100
CSc1cc(F)c(N2COCN(C(=O)c3c(F)cccc3Cl)C2=O)c(F)c1 [I-208]	100
CN1CN(C(=O)c2c(F)cccc2F)C(=O)N(c2cc(Cl)c(OC(F)(F)C(F)C(F)(F)F)cc2Cl)C1 (stereo not drawn) [III-69]	100
O=C(c1c(F)cccc1F)N1COCN(c2ccc(SC(F)(F)F)c(F)c2F)C1=O [I-107]	100
O=C(c1c(F)cccc1F)N1COCN(c2cc(Cl)c(OC(F)(F)C(F)C(F)(F)F)cc2Cl)C1=O (stereo not drawn) [I-6]	100
CS(=O)(=O)N1CN(C(=O)c2c(F)cccc2F)C(=O)N(c2ccc(SC(F)F)cc2F)C1 [III-150]	100
O=C(c1c(F)cccc1Cl)N1COCN(c2ccc([S+]([O-])C(F)(F)F)c(F)c2)C1=O (stereo not drawn) [I-258]	100
O=C(c1c(F)cccc1Cl)N1COCN(c2ccc([S+]([O-])C(F)(F)F)c(Cl)c2Cl)C1=O (stereo not drawn) [I-270]	100
O=C(c1c(F)cccc1Cl)N1COCN(c2cc(F)c(SC(F)(F)F)cc2F)C1=O [I-287]	100
Cc1cc(N2COCN(C(=O)c3c(F)cccc3F)C2=O)c(C)cc1SC(F)(F)F [I-86]	100
O=C(c1c(Cl)cccc1Cl)N1COCN(c2ccc(SC(F)F)cc2F)C1=O [I-395]	100
O=C(c1c(F)cccc1F)N1COCN(c2ccc(SC(F)(F)F)c(F)c2)C1=O [I-80]	100
O=C(c1c(F)cccc1F)N1COCN(c2cc(Cl)c(OC(F)(F)C(F)F)c(Cl)c2)C1=O [I-5]	100
O=C(c1c(F)cccc1Cl)N1COCN(c2ccc(SC(F)(F)F)c(Cl)c2)C1=O [I-254]	100
O=C(c1c(F)cccc1Cl)N1COCN(c2cc(Cl)c([S+]([O-])C(F)(F)F)cc2F)C1=O (stereo not drawn) [I-276]	100
Cc1cc(SC(F)(F)F)ccc1N1COCN(C(=O)c2c(F)cccc2F)C1=O [I-68]	100
O=C(c1c(F)cccc1F)N1CN(C2CC2)CN(c2ccc(Oc3ccc(C(F)(F)F)cc3Cl)cc2F)C1=O [III-36]	100
O=C(c1c(F)cccc1F)N1COCN(c2ccc(Oc3ccc(C(F)(F)F)cc3Cl)cc2F)C1=O [I-3]	100

Compound	rate of dead pests (%)
Cc1cc([S+]([O-])C(F)(F)F)c(Cl)cc1N1COCN(C(=O)c2c(F)cccc2F)C1=O (stereo not drawn) [I-90]	100
Cc1cc(SC(F)(F)F)c(F)cc1N1COCN(C(=O)c2c(F)cccc2Cl)C1=O [I-302]	100
O=C(c1c(F)cccc1Cl)N1COCN(c2ccc([S+]([O-])C(F)(F)F)c(F)c2F)C1=O (stereo not drawn) [I-285]	100
Cc1cc([S+]([O-])C(F)(F)C(F)(F)C(F)(F)F)c(Cl)cc1N1COCN(C(=O)c2c(F)cccc2Cl)C1=O (stereo not drawn) [I-330]	100
CC(=O)N1CN(C(=O)c2c(F)cccc2F)C(=O)N(c2ccc(SC(F)(F)F)cc2F)C1 [III-161, 1-(2,6-difluorobenzoyl)-3-[2-fluoro-4-(trifluoromethylthio)phenyl]-5-aceyltetrahydro-1,3,5-triazin-2(1H)-one]	100
O=C(c1c(F)cccc1F)N1CN(c2ccccc2)CN(c2ccc(Oc3ccc(C(F)(F)F)cc3Cl)cc2F)C1=O [III-30]	100
O=C(c1c(F)cccc1F)N1COCN(c2c(F)cc([S+]([O-])C(F)(F)F)c(F)c2F)C1=O (stereo not drawn) [I-117]	100
O=C(c1c(F)cccc1Cl)N1COCN(c2c(F)cc([S+]([O-])C(F)(F)F)cc2F)C1=O (stereo not drawn) [I-282]	100
O=C(c1c(F)cccc1Cl)N1COCN(c2ccc(SC(F)(F)F)c(Cl)c2F)C1=O [I-272]	100
Cc1cc(N2COCN(C(=O)c3c(F)cccc3Cl)C2=O)ccc1SC(F)(F)F [I-248]	100
Cc1cc(SC(F)(F)F)c(F)cc1N1COCN(C(=O)c2c(F)cccc2F)C1=O [I-125]	100
O=C(c1c(F)cccc1F)N1CN(Cc2ccccc2)CN(c2ccc(Oc3ccc(C(F)(F)F)cc3Cl)cc2F)C1=O [III-29]	100
Cc1cc([S+]([O-])C(F)(F)F)c(C)cc1N1COCN(C(=O)c2c(F)cccc2F)C1=O (stereo not drawn) [I-87]	100
O=C(c1c(F)cccc1Cl)N1COCN(c2ccc(SC(F)(F)F)c(Cl)c2Cl)C1=O [I-269]	100
O=C(c1c(F)cccc1Cl)N1COCN(c2ccc(SC(F)(F)C(F)(F)F)cc2F)C1=O [I-305]	100
Cc1c(SC(F)(F)F)ccc(N2COCN(C(=O)c3c(F)cccc3F)C2=O)c1C [I-83]	100
O=C(c1c(F)cccc1F)N1COCN(c2cc(F)c(SC(F)(F)F)cc2F)C1=O [I-110]	100
Cc1cc(SC(F)(F)F)ccc1N1CN(C)CN(C(=O)c2c(F)cccc2Cl)C1=O [III-455]	100
O=C(c1c(F)cccc1Cl)N1COCN(c2cc(F)c(SC(F)(F)F)c(F)c2)C1=O [I-290]	100
O=C(c1c(F)cccc1F)N1COCN(c2ccc(SC(F)(F)F)c(Cl)c2)C1=O [I-77]	100
Cc1cc(SC(F)(F)F)c(Cl)cc1N1COCN(C(=O)c2c(F)cccc2F)C1=O [I-89]	100
O=C(c1c(F)cccc1Cl)N1COCN(c2ccc(SC(F)(F)C(F)(F)C(F)(F)F)cc2F)C1=O [I-320]	100
O=C(c1c(F)cccc1Cl)N1COCN(c2c(F)c(F)c(SC(F)(F)F)c(F)c2F)C1=O [I-296]	100
Cc1cc(SC(F)(F)F)c(Cl)cc1N1COCN(C(=O)c2c(F)cccc2Cl)C1=O [I-266]	100
O=C(c1c(F)cccc1Cl)N1COCN(c2ccc(SC(F)(F)F)c(F)c2)C1=O [I-257]	100
O=C(c1c(F)cccc1F)N1COCN(c2ccc(SC(F)(F)C(F)Cl)cc2F)C1=O (stereo not drawn) [I-7]	100

Same assay, conditions: 120 h; 100 ppm; sprayed on soybean; third-instar larvae of Spodoptera litura; fifth day after; read-out: rate of dead pests (%)

Compound	pest or weed control at 100 ppm [%]
C=CCN1CN(C(=O)c2c(F)cccc2F)C(=O)N(c2ccc(Cl)cc2)C1 [III-5, 5-allyl-1-(4-chlorophenyl)-3-(2,6-difluorobenzoyl)tetrahydro-1,3,5-triazin-2 (1H)-one]	100
O=C(OCc1ccccc1)N1CN(C(=O)c2c(F)cccc2F)C(=O)N(c2ccc(Oc3ccc(C(F)(F)F)cc3Cl)cc2F)C1 [III-22, 5-benzyloxycarbonyl-1-[4-(2-chloro-4-trifluoromethylphenoxy)-2-fluorophenyl]-3-(2,6-difluorobenzoyl)tetrahydro-1,3,5-triazin-2(1H)-one]	100
CN1CN(C(=O)c2c(F)cccc2F)C(=O)N(c2ccc(Cl)cc2)C1 [III-1, 1-(4-chlorophenyl)-3-(2,6-difluorobenzoyl)-5-methyltetrahydro-1,3,5-triazin-2(1H)-one]	100
O=C(OCc1ccccc1)N1CN(C(=O)c2c(F)cccc2F)C(=O)N(c2ccc(Cl)cc2)C1 [III-7, 5-benzyloxycarbonyl-1-(4-chlorophenyl)-3-(2,6-difluorobenzoyl)tetrahydro-1,3,5-triazin-2 (1H)-one]	100
O=C(c1c(F)cccc1F)N1CNCN(c2ccc(Cl)cc2)C1=O [III-6, 1-(4-chlorophenyl)-3-(2,6-difluorobenzoyl)tetrahydro-1,3,5-triazin-2(1H)-one]	100
CS(=O)(=O)N1CN(C(=O)c2c(F)cccc2F)C(=O)N(c2ccc(SC(F)(F)F)cc2F)C1 [III-162, 1-(2,6-difluorobenzoyl)-3-[2-fluoro-4-(trifluoromethylthio)phenyl]-5-methylsulfonyltetrahydro-1,3,5-triazin-2(1H)-one]	100
O=C(c1c(F)cccc1F)N1COCN(c2ccc(SC(F)(C(F)(F)F)C(F)(F)F)cc2F)C1=O [I-158, 3-(2,6-difluorobenzoyl)-5-[2-fluoro-4-(1,1,1,2,3,3,3-heptafluoro-2-propylthio)phenyl]tetrahydro-4H-1,3,5-oxadiazin-4-one]	100

Same assay, conditions: Spodoptera litura, in Glycine max, 120 h, read-out: rate of dead pests (%)

Compound	pest or weed control at 100 ppm [%]
O=C(c1c(F)cccc1F)N1COCN(c2ccc(SC(F)(F)C(F)(F)C(F)(F)F)cc2F)C1=O [I-143, 3-(2,6-difluorobenzoyl)-5-[2-fluoro-4-(1,1,2,2,3,3,3-heptafluoro-1-propylthio)phenyl]tetrahydro-4H-1,3,5-oxadiazin-4-one]	100
